According to patent US6864373B2, “Stable amorphous celecoxib composite and process therefor” (Pharmacia Corporation, priority 2002, dated 2005):
Converted amounts (≈) assume the structure as drawn.

Assay: Solubility of celecoxib in aqueous media
Type: physicochemical
Description: However, celecoxib presents certain challenges for formulation as a rapid-onset dosage form, particularly as a rapid-onset oral dosage form. For example, celecoxib has very low solubility in aqueous media (about 2 to about 5 μg/ml) and therefore is not readily dissolved and dispersed for rapid absorption in the gastrointestinal tract when administered orally, for example in tablet or capsule form. In addition, celecoxib has a relatively high dose requirement further increasing difficulties of providing a sufficient therapeutically effective dose for rapid absorption.

solubility: 2 to 5 µg/mL (≈ 5.24 to 13.1 µM)
Compound: Cc1ccc(-c2cc(C(F)(F)F)nn2-c2ccc(S(N)(=O)=O)cc2)cc1 [celecoxib, 4-[5-(4-methylphenyl)-3-(trifluoromethyl)-1H-pyrazol-1-yl]benzenesulfonamide]
